Assay results reported in US10273313B2, “Multimeric mannosides, a process for preparing the same and their uses as a drug” (CENTRE NATIONAL DE LA RECHERCHE SCIENTIFIQUE, priority 2012, dated 2019).
“And” between values parts separate entries of the source, which are not always exact repeats. Identical values can stand only once. Like-named read-outs stand apart in the source and are kept apart here.

What was measured:
[1] = molecular target: T1, monovalent lectin domain of FimH (Escherichia coli, UniProt P08191); assay type: binding
T1 construct: with the monovalent lectin domain of FimH were measured using isothermal calorimetry (ITC)
T1 sequence (P08191 22-179): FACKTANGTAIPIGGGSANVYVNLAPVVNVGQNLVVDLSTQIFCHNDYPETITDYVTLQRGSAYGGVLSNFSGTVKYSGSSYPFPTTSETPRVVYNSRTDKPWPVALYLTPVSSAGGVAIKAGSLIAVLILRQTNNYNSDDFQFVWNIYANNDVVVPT

[2] = test system: E. coli strain UTI89 in the bladder of C3H/HeN mice; assay: In vivo inhibition in the murine cystitis model (instillation with UTI89)
Experimental: In vivo inhibition was evaluated by instilling 1-4 together with the UTI89 strain via a catheter in the bladder of C3H/HeN mice. […] A group of ten animals was used for each concentration of antagonists. […] The animals were sacrificed at a 6 h post infection time.
A murine model of urinary tract infection was used to test the ability of the compounds to inhibit the colonization of UTI89 in the bladder [Hung C. S.; Dodson, K. W., Hultgren S. J. Nat. Protoc. 2009, 4, 1230-1243 and Wellens A.; Garofalo C.; Nguyen H.; Van Gerven N.; Slättegård R.; Hernalsteens, J.-P.; Wyns, L.; Oscarson, S.; De Greve H.; Hultgren S. J.; Bouckaert, J. PLoS ONE 2008, 3, e2040]. The solution with high concentration of compounds was added to the resuspension of UTI89 before given to the mice. The eight-week old Female C3H/HeN mice (Harlan, Horst, The Netherlands) were anesthetized and infected via transurethral catheterization of 10^7 CFU UTI89 in solution in PBS, or in PBS with the compound in the mentioned concentration. The mice were sacrificed at 24 hours post infection and the bladders were harvested, homogenized and resuspended in PBS. The serial dilutions were spot on LB medium agar plates. The bacterial load was determined by counting the CFU recovered from the bladder. The animal experiments were approved by the Ethical Committer for Animal Experiments of Vrije Universiteit Brussel and complied with all relevant national legislation and institutional policies. The Mann-Whitney test was applied for the comparison of the data obtained from the untreated group and inhibition group in GraphPad Prism version 5.1 and two tailed P value were shown (GraphPad software).
A limited number of papers described the in vivo efficiency of anti-adhesive mannosides to treat UTIs.

[3] = test system: AIEC LF82 strain adhesion to T84 intestinal epithelial cells; assay: Adhesion assay on T84 cells, cells incubated 1 h with mannoside prior infection (Example 21.1); assay type: cell-based, Escherichia coli
Experimental: (§1) E. coli strain LF82 was isolated from a chronic ileal lesion of a patient with Crohn's disease (CD). Bacteria were grown routinely in Luria-Bertani (LB) broth overnight at 37° C. Intestinal epithelial cells T84 derived from colonic adenocarcinoma were maintained in an atmosphere containing 5% CO2 at 37° C. in DMEM/F12 (50/50) medium supplemented with 10% (v/v) heat-inactivated fetal calf serum (FCS), 1% L-glutamine, 100 000 U·l^−1 penicillin, 100 mg·l^−1 streptomycin, 25 μg·l^−1 amphotericin B.
T84 cells were seeded in 48-well tissue culture plates with 1.5×10^5 cells per well and grown for 48 h. Cells were incubated 1 h prior infection with each mannoside at a final concentration of 100; 10; 1 or 0.1 μM in complete medium without antibiotics, containing heat inactivated fetal calf serum (FCS) and were next infected with AIEC LF82 strain at a multiplicity of infection (MOI) of 10 bacteria per cell. After a 3 h incubation period at 37° C., the monolayers were washed in phosphate-buffered saline (PBS; pH 7.2). The epithelial cells were then lysed with 1% Triton X-100 in deionized water. Samples were diluted and plated onto Luria Bertani agar plates to determine the number of cfu recovered from the lysed monolayers.
Results were expressed in percentage of residual adhesion, considering adhesion level of AIEC LF82 without mannoside treatment as 100%.

[4] = test system: AIEC LF82 bacteria adhesion to T84 intestinal epithelial cells; assay: Adhesion assay on T84 cells, pre-, co- and post-incubation protocols (Example 21.2); assay type: cell-based, Escherichia coli; details: for Concentration leading to decreased adhesion levels of at least 50%: pre-incubation assay
Experimental: as §1
T84 were seeded in 48-well plates at a concentration of 1.5×10^5 cells per well and grown for 48 h. AIEC LF82 bacteria were incubated 1 h with each mannoside prior the cell infection (pre-incubation protocol) or they were added simultaneously onto the cells (co-incubation protocol) in complete medium without antibiotics, containing heat inactivated fetal calf serum (FCS). Heptyl-mannose or compound 2 (example 1) were tested at a dose of 100; 10; 1 or 0.1 μM. D-D-mannose was tested at a dose of 10 000; 1 000; 100 or 10 μM and compound 1 (example 2bis) was tested at a concentration of 500; 100; 10 or 1 μM. Cells were infected with AIEC LF82 bacteria at a multiplicity of infection (MOI) of 10 bacteria per cell for 3 h at 37° C. For the post-incubation protocol, mannosides were incubated with cells for 3 h after bacterial infection. A washing step was realized before this post-incubation to eliminate non-adherent bacteria. Monolayers were washed in phosphate-buffered saline (PBS; pH 7.2) and cells were then lysed with 1% Triton X-100 in deionized water. Samples were diluted and plated onto Luria Bertani agar plates to determine the number of colony-forming units (CFU) recovered from the lysed monolayers. Results were expressed as percentages of residual adhesion, considering adhesion level of AIEC LF82 without mannoside treatment as 100%.

[5] = test system: AIEC strain LF82 adhesion to T84 intestinal epithelial cells; assay: Adhesion assay on T84 cells with thiazolylaminomannosides (Example 22.3); assay type: cell-based, Escherichia coli
How it was run: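 CEACAM6-overexpressing T84 cells pre-incubated 1 h with compound (0.1, 1, 10, 100 μM), then infected with AIEC LF82 at MOI 10 for 3 h in compound presence. Cell-associated bacteria counted after washing; residual adhesion expressed relative to untreated (100%).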

FimH = FimH (Escherichia coli, UniProt P08191); details: Isothermal Titration calorimetry (ITC); read-out: Dissociation constant of the HM-FimH complex; cited from earlier work
FimH, sequence (P08191 22-300): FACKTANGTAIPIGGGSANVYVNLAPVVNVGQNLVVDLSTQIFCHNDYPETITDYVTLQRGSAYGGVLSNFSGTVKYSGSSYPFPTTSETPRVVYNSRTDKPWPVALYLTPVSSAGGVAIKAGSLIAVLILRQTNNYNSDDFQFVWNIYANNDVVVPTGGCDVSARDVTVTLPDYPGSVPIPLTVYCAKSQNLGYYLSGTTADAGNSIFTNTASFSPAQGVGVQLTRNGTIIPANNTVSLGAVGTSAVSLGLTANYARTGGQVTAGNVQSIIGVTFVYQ

Which results are given for `OCC1OC(OCCCCCCCOCc2cn(CC3OC4OC5C(Cn6cc(COCCCCCCCOC7OC(CO)C(O)C(O)C7O)nn6)OC(OC6C(Cn7cc(COCCCCCCCOC8OC(CO)C(O)C(O)C8O)nn7)OC(OC7C(Cn8cc(COCCCCCCCOC9OC(CO)C(O)C(O)C9O)nn8)OC(OC8C(Cn9cc(COCCCCCCCOC%10OC(CO)C(O)C(O)C%10O)nn9)OC(OC9C(Cn%10cc(COCCCCCCCOC%11OC(CO)C(O)C(O)C%11O)nn%10)OC(OC%10C(Cn%11cc(COCCCCCCCOC%12OC(CO)C(O)C(O)C%12O)nn%11)OC(OC3C(O)C4O)C(O)C%10O)C(O)C9O)C(O)C8O)C(O)C7O)C(O)C6O)C(O)C5O)nn2)C(O)C(O)C1O` (stereo not shown) [Compound 2]?
Affinity of FimH for the ligand (in words) ([1]; ITC): nanomolar affinities; Molar ratio n meas ([1]; normal (direct) titration): 0.12; ΔG° ([1]; normal (direct) titration): -10.5 kcal/mol; ΔH° ([1]; normal (direct) titration): -77.5 kcal/mol; ΔS° ([1]; normal (direct) titration): −227 cal/mol/deg; Kd ([1]; normal (direct) titration, compound injected into FimH): 18.2 nM; Molar ratio n meas ([1]; reverse titration): 3 and 3.01; ΔG° ([1]; reverse titration): -11.6 kcal/mol; ΔH° ([1]; reverse titration): -19.2 kcal/mol; ΔS° ([1]; reverse titration): −25.9 cal/mol/deg; Kd ([1]; reverse titration, FimH injected into compound): 2.86 nM and 2.9 nM; Bacterial reduction compared with monovalent 1 and 3 at 1 mM ([2]; 10 μM (1.8 and 2.5 μg)): equivalent bacterial reduction; Reduction of urinary tract infection ([2]; around 2 μg instilled in the mouse bladder, after 24 h): significantly reduced the urinary tract infection; Concentration reaching around 75% of binding inhibition (25% line) [3]: 1 µM; Adhesion in the post-incubation protocol ([4]; post-incubation, 10 μM): significant decreased adhesion; Concentration leading to decreased adhesion levels of at least 50% [4]: 0.1 µM

For `CCCCCCCO[C@H]1O[C@H](CO)[C@@H](O)[C@H](O)[C@@H]1O` [HM, Heptylmannoside, reference compound], which “Concentration leading to decreased adhesion levels of at least 50%” value [4] is on record?
Its value is 10 µM.

And the “Inhibitory potency relative to α-D-mannose” value [5]?
Its value is 100 times.

And the “Inhibitory effect on adhesion” value ([5]; 100 nM)?
The value was “no significant effect”.

And the “AIEC remaining attached to the cells (residual adhesion)” value ([5]; 1 μM)?
The value was “No significant decrease”.

And the Residual adhesion ([5]; 10 μM)?
The Residual adhesion was 52.4%.

And the Kd (FimH)?
The Kd was 7 nM.
